Assay results as given in patent US20230255906A1, “Targeting Serpin B9 in Cancer” (The Brigham and Women`s Hospital, Inc., priority 2020, published 2023).

What was measured:
[1] = target: T1, MBP-Sb9 (Homo sapiens, UniProt P50453); assay: Saturation-Transfer Difference (STD) NMR assay; type: binding; conditions: 420 μM compound, 45 μM Sb9 protein, PBS pH 7.0, 25° C.
T1 construct: made in house
T1 sequence (P50453 2-376): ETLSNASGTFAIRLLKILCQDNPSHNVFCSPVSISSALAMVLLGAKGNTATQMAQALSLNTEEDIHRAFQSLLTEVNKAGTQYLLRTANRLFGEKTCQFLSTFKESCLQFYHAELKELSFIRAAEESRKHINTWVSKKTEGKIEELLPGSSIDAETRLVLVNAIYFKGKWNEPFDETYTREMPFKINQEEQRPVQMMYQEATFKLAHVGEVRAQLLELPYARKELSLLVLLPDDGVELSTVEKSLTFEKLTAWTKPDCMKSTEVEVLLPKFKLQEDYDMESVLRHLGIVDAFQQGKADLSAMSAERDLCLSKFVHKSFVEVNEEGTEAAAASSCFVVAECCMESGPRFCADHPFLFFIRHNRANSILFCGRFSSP
Text: The Saturation-Transfer Difference (STD) NMR assay was used to evaluate the binding of the compound of Formula (III) to Sb9. […] The saturation period was 3.0 seconds with irradiation at 0 ppm (on-resonance excitation) and −20 ppm (off-resonance excitation). The number of scans was 160 for the on and off-resonance spectra, respectively. Spectra were processed using Topspin software and apodized with exponential multiplication with 1.0 Hz line-broadening.
The Saturation-Transfer Difference (STD) NMR assay was used to evaluate the binding of the compounds of Formulas (I) and (II) to Sb9. […] The saturation period was 3.0 seconds with irradiation at 0.7 ppm (on-resonance excitation) and 20 ppm (off-resonance excitation). The number of scans was 800. The spectra were processed using Topspin software with 1.0 Hz line-broadening.
The Saturation-Transfer Difference (STD) NMR assay as described herein was used to evaluate the binding of the compound of Formula (III) to Sb9.

[2] = system: 4T1 breast tumors; assay: 4T1 breast tumor model in BALB/c mice; type: in vivo, mouse; conditions: i.p. twice a day 14 days
Method: (§1) Mice were anesthetized with isoflurane, and tumor cell lines (B16, A375, and 4T1) were gently injected subcutaneously in the flanks or mammary glands of mice. One hundred thousand cells (1×10^5 cells) were injected per mouse for most of the experiments. However, twenty-five thousand cells (25×10^3 cells) were injected per mouse for the experiments using the compound of Formula (III). Upon 4 hrs post-implantation, 300 μg of the compound of Formula (III) was administered twice a day intraperitoneally for 14 days. Tumor growth was monitored three times per week by digital caliper (Fisherbrand™ Traceable™ Digital Calipers).
Sb9 is highly expressed in human primary breast tumor cells (FIG. 6D) and in the stromal cells within the TME (FIGS. 6D-6E). Whether the compound of Formula (III) could be used to treat mice implanted with 4T1 breast tumor cells was therefore determined. […] Treatment with the compound of Formula (III) increased the median survival time (MST) of mice bearing 4T1 breast tumors and receiving treatment with the compound of Formula (III) as compared to mice bearing 4T1 breast tumors and not receiving treatment (MST=28 days vs MST=22 days, respectively) (FIG. 6G).
For mouse Breast Cancer model, 1×10^5 4T1 cells were subcutaneously implanted into the fourth mammary pad of BABL/c mice, and mice were separated randomly into three groups: Control, compound of Formula (I), and compound of Formula (II). In the compound of Formula (I) group, mice were treated with the compound of Formula (I) for 14 days consecutively ([…], i.p, twice a day). In the compound of Formula (II) group, mice were administrated the compound of Formula (II) 14 days consecutively (300 μg/mouse, i.p, twice a day). Tumor sizes were measured every 3 days from day 5 post-tumor implantation and calculated with formula length×width^2/2.

[3] = system: cancer cells; assay: Caspase-3 immunofluorescence in cancer cells; type: cell-based; conditions: 200 μM, 48 hrs
Method: 1×10^4 cancer cells were seeded in an 8-well chamber and treated with 200 μM of the compounds of Formulas (I) and (II) for 48 hrs. Controls were the equal amount of DMSO. Cells were stained with anti-caspase3. DAPI was used to counterstain the cell nuclei. The stained tissue sections were visualized using an EVOS™ FL Auto 2 Imaging System.

[4] = system: B16-WT mouse melanoma tumors; assay: B16 melanoma tumor model in C57BL/6 mice; type: in vivo
Method: as §1
The anti-tumor activity of the compound of Formula (III) in vivo was assessed. […] Treatment with the compound of Formula (III) increased the median survival time (MST) of mice bearing B 16-WT mouse melanoma tumors and receiving treatment with the compound of Formula (III) as compared to mice bearing B16-WT melanoma tumors and not receiving treatment (MST=39 days vs MST=26 days, respectively) (FIG. 51B). Next, the effect of the compound of Formula (III) on tumor immunity was examined.
The efficacy of the compound of Formula (III) was assessed in C57BL/6J mice (FIG. 18). B16 mouse melanoma cells were implanted subcutaneously into the right flanks of C57BL/6J mice, and the mice were randomized into three groups: (1) no treatment (control), (2) treatment with anti-PD1, and (3) treatment with Formula (III). The mice in the anti-PD1 group received 200 μg of anti-PD1 iv every 3 days, and those in the Formula (III) group received 300 μg of Formula (III) twice a day consecutively for 14 days.
A survival study using the compound of Formula (IV) in mice harboring B16 melanoma was performed. Mice implanted with B16 tumors were treated with the compound of Formula (IV) (n=8) and compared to a control group having B16 tumors and not receiving treatment with the compound of Formula (IV) (n=8).

[5] = system: B16 melanoma cells; assay: Caspase-3 activity assay (EnzChek Caspase-3 Assay Kit), caspase-3 induction in tumor cells; type: cell-based, mouse
How it was run: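 B16 melanoma cells exposed to compounds for 24 h, lysed on ice 30 min, and lysate incubated with Z-DEVD-R110 substrate about 30 min at room temperature. Fluorescence read at ~496/520 nm against untreated-cell and no-enzyme controls; caspase-3 induction serves as surrogate for GrB activity from Sb9 inhibition.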

COC(=O)c1cc(N)c(O)cc1NC(=O)OC(C)(C)C [Formula (I), methyl 5-amino-2-((tert-butoxycarbonyl)amino)-4-hydroxybenzoate]
binding to MBP-Sb9 by STD NMR [1]: confirmed the binding activities | tumor size vs Control group ([2]; Day 11 post-tumor implantation): significantly decreased | tumor size vs Control group ([2]; Day 14 post-tumor implantation): significantly decreased | caspase-3 expression compared to DMSO [3]: significantly increased caspase-3 expression

COC(=O)c1cc(N)c(O)cc1NC(=O)c1ccccc1 [Formula (II), methyl 5-amino-2-benzamido-4-hydroxybenzoate]
binding to MBP-Sb9 by STD NMR [1]: confirmed the binding activities | tumor size vs Control group ([2]; Day 14 post-tumor implantation): significantly decreased | caspase-3 expression compared to DMSO [3]: significantly increased caspase-3 expression | increase of caspase-3 expression, comparison between compounds [3]: higher than the group treated with the compound of Formula (I)

NC(=O)c1ccc(O)c(O)c1 [Formula (IV), 3,4-dihydroxybenzamide]
binding to MBP-Sb9 by STD NMR [1]: clearly show inter-molecular interaction of all aromatic peaks | tumor size vs Control group ([4]; Day 22 post-tumor implantation (FIG. 17A)): decreased | melanoma progression in vivo ([4]; mice bearing B16 tumors, n=8 (FIG. 17A)): suppressed melanoma progression | median survival time (MST) ([4]; mice bearing B16 tumors, n=8 (FIG. 17B)): 34 days

CN(Cc1ccncn1)C(=O)c1ccc2oc(-c3ccc(C(F)(F)F)cc3)nc2c1 [N-methyl-N-(4-pyrimidinylmethyl)-2-[4-(trifluoromethyl)phenyl]-1,3-benzoxazole-5-carboxamide]
Ratio of caspase-3 activity to Formula (III) [5]: 0.1443

CN(CCN1CCOCC1)C(=O)c1ccc2oc(-c3ccc(C(F)(F)F)cc3)nc2c1 [N-methyl-N-[2-(4-morpholinyl)ethyl]-2-[4-(trifluoromethyl)phenyl]-1,3-benzoxazole-5-carboxamide]
Ratio of caspase-3 activity to Formula (III) [5]: 0.1327

Cc1c[nH]c(CN(C)C(=O)c2ccc3oc(-c4ccc(C(F)(F)F)cc4)nc3c2)n1 [N-methyl-N-[(4-methyl-1H-imidazol-2-yl)methyl]-2-[4-(trifluoromethyl)phenyl]-1,3-benzoxazole-5-carboxamide]
Ratio of caspase-3 activity to Formula (III) [5]: 0.1327

O=C(c1ccc2oc(-c3ccc(C(F)(F)F)cc3)nc2c1)N1CCC[C@H]1CO [[(2S)-1-({2-[4-(trifluoromethyl)phenyl]-1,3-benzoxazol-5-yl}carbonyl)-2-pyrrolidinyl]methanol]
Ratio of caspase-3 activity to Formula (III) [5]: 0.1353

O=C(c1ccc2nc(-c3ccccc3)oc2c1)N1C[C@@H](F)C[C@H]1CO [[(2S,4S)-4-fluoro-1-(2-phenyl-1,3-benzoxazole-6-carbonyl)pyrrolidin-2-yl]methanol]
Ratio of caspase-3 activity to Formula (III) [5]: 0.09723

CCOC(=O)C1CCCN(C(=O)c2ccc3nc(-c4cccc(OC)c4)oc3c2)C1 (centres unmarked) [ethyl 1-{[2-(3-methoxyphenyl)-1,3-benzoxazol-6-yl]carbonyl}-3-piperidinecarboxylate]
Ratio of caspase-3 activity to Formula (III) [5]: 0.1363

CCOC(=O)CC1CCCCN1C(=O)c1ccc2nc(-c3cccc(OC)c3)oc2c1 (centres unmarked) [ethyl (1-{[2-(3-methoxyphenyl)-1,3-benzoxazol-6-yl]carbonyl}-2-piperidinyl)acetate]
Ratio of caspase-3 activity to Formula (III) [5]: 0.1479

CCOC(=O)CCNC(=O)c1ccc2oc(-c3cccc(F)c3)nc2c1 [ethyl N-{[2-(3-fluorophenyl)-1,3-benzoxazol-5-yl]carbonyl}-beta-alaninate]
Ratio of caspase-3 activity to Formula (III) [5]: 0.09329

CCOC(=O)CCNC(=O)c1ccc2nc(-c3cccc(OC)c3)oc2c1 [ethyl N-{[2-(3-methoxyphenyl)-1,3-benzoxazol-6-yl]carbonyl}-beta-alaninate]
Ratio of caspase-3 activity to Formula (III) [5]: 0.1049

COC(=O)C1CCN(C(=O)c2ccc3nc(-c4cccc(OC)c4)oc3c2)CC1 [methyl 1-{[2-(3-methoxyphenyl)-1,3-benzoxazol-6-yl]carbonyl}-4-piperidinecarboxylate]
Ratio of caspase-3 activity to Formula (III) [5]: 0.1376

COC(=O)CCCNC(=O)c1ccc2nc(-c3cccc(OC)c3)oc2c1 [methyl 4-({[2-(3-methoxyphenyl)-1,3-benzoxazol-6-yl]carbonyl}amino)butanoate]
Ratio of caspase-3 activity to Formula (III) [5]: 0.3858
